According to patent US7932228B2, “Method of treating bone or prostate cancer with selective bradykinin B1 receptor antagonists” (Societe de Commercialisation des Produits de la Recherche …, priority 2004, dated 2011):

What was measured:
[1] = test system: MAT-LyLu-B2 prostate cancer cells; experiment: orthoptic prostate cancer rat model (tumor progression); format: in vivo; conditions: male Copenhagen rats, 3 mg/kg s.c. daily from day 1, 21 days after surgery, n=5-6, p<0.05; saline 1856±443 mg
Protocol: The potential of a BKB1-R antagonist to inhibit tumor progression in an orthoptic prostate cancer rat model was evaluated. Under anesthesia, male Copenhagen rats were injected in the anterior prostatic lobe with 100 000 MAT-LyLu-B2 prostate cancer cells. One day after the surgery, the animals received a daily injection of either saline or Compound A (3 mg/kg s.c.). At 21 days after the surgery, the animals were sacrificed and the prostate tumor was excised and weighted. Average weight of the prostate and tumor was 1856±443 mg for saline-treated rats and 504±135 mg with Compound A-treated animals (n=5-6 p<0.05). Two other cancerous cell-types (R 3327-G, MAT-Lu) were implanted in rats and similar results were obtained at inhibiting tumor progression dose-dependently over periods of time. A BKB1-Ra was also reported effective at stopping and reversing the progression of established tumor, considering efficacy, reversibility and relapse of treatment. These elements were maintained upon dual and triple combinations with other anti-cancer, anti-angiogenic, anti-proliferative agents such as taxane and platinum related compounds.

[2] = test system: PC-3 cells; conditions: in vitro, cited from earlier work

## Ac-Orn[Oic^2,(α-Me)Phe^5,D-βNal^7,Ile^8]desArg^9BK [Compound A]
[1]
  Average weight of the prostate and tumor: 504 ± 135 mg

## Arg Pro Pro Gly Phe Ser Pro Phe (RPPGFSPF; desArg9 BK) [desArg^9-BK]
[2]; BKB1-R agonist alone
  cell growth and proliferation of PC-3 cells: stimulated

## [Leu^8]desArg^9-BK
[2]; growth stimulated by desArg^9-BK
  effect on desArg^9-BK-stimulated growth of PC-3 cells: blocked
